What was measured:
SOD1 = assay: Western blotting of intracellular SOD1 in iPS cell-derived astrocytes; assay type: cell-based, human; conditions: astrocytes from ALS patient iPS cells; 1 μM, 3 μM, 10 μM and 30 μM; 48 hours; β-actin internal standard (FIG. 3D)
Method: A 4-mm skin biopsy was cultured for 3 weeks, and the resulting cells in culture were used as the fibroblasts derived from an ALS patient.
Human cDNAs for KLF4, Sox2, Oct3/4 and c-Myc were transferred to the above-described fibroblasts using a retrovirus, as described by Takahashi K et al. in Cell 131(5), 861, 2007. On day 6 after the gene transfer, the fibroblasts were transferred onto SNL feeder cells. The following day, the medium was replaced with a primate ES cell culture broth supplemented with 4 ng/ml of bFGF (Wako). The medium was exchanged every two days; 30 days after the gene transfer, colonies were picked up.
Neurospheres were formed by a slightly modified version of the method described by Wada T et al. in PLoS ONE 4(8), e6722, 2009. […]
The iPS cell-derived astrocytes were seeded to a 6-well plate at a density of 250,000 cells/well. […] After the incubation, the amount expressed was detected by ECL (Enhanced ChemiLuminescence) using an HRP-linked anti-rabbit IgG antibody (1:5000; GE healthcare) and an HRP-linked anti-mouse IgG antibody (1:5000; GE healthcare).

human SOD1 (hSOD1) mRNA = assay: Human SOD1 mRNA in spinal cord of human SOD1 (G93A) transgenic mice (PCR); assay type: in vivo, mouse; conditions: 60 mg/kg/day oral, 5 days a week for 4 weeks, vs solvent control; relative to β-actin (FIG. 4)
Method: (§1) To 8-week-old human SOD1 (G93A) transgenic mice (The Jackson Laboratory) were orally administered sorafenib (60 mg/kg/day) dissolved in 95% ethanol and Cremophol EL or solvent alone as a control, each to 3 mice, 5 days a week for 4 weeks. After administration, the spinal cord was removed. Total RNA was extracted and human and mouse SOD1 mRNA amounts were measured by PCR.

mouse SOD1 (mSOD1) mRNA = assay: Mouse SOD1 mRNA in spinal cord of human SOD1 (G93A) transgenic mice (PCR); assay type: in vivo; conditions: 60 mg/kg/day oral, 5 days a week for 4 weeks, vs solvent control; relative to β-actin (FIG. 4)
Method: as §1

Compound: CNC(=O)c1cc(Oc2ccc(NC(=O)Nc3ccc(Cl)c(C(F)(F)F)c3)cc2)ccn1 [sorafenib]
- expression of SOD1 (western blotting) (SOD1): a reduction in the expression of SOD1 was observed
- human SOD1 mRNA amount in spinal cord (human SOD1 (hSOD1) mRNA): significantly decreased
- mouse SOD1 mRNA amount in spinal cord (mouse SOD1 (mSOD1) mRNA): significantly decreased

Source: patent publication US9856210B2, “Pharmaceutical composition for prevention and treatment of amyotrophic lateral sclerosis” (Kyoto University, priority 2010, dated 2018)
